Measured values as given in US20130030172A1, “Methods of Preparing Quinoline Derivatives” (Exelixis, Inc., priority 2008, published 2013).

How the values were obtained:
c-Kit = c-Kit (Homo sapiens, UniProt P10721); experiment: c-Kit kinase assay as described in WO 2005/030140 A2; format: biochemical; conditions: assays described in WO 2005/030140 A2
Excerpt: (§1) Other utilities of this compound are further described in WO 2005/030140 A2.

c-Met = c-Met (Homo sapiens, UniProt P08581); experiment: c-Met kinase assay as described in WO 2005/030140 A2; format: biochemical; conditions: assays described in WO 2005/030140 A2
Excerpt: as §1

Chain of c-Met (P08581 25-1390): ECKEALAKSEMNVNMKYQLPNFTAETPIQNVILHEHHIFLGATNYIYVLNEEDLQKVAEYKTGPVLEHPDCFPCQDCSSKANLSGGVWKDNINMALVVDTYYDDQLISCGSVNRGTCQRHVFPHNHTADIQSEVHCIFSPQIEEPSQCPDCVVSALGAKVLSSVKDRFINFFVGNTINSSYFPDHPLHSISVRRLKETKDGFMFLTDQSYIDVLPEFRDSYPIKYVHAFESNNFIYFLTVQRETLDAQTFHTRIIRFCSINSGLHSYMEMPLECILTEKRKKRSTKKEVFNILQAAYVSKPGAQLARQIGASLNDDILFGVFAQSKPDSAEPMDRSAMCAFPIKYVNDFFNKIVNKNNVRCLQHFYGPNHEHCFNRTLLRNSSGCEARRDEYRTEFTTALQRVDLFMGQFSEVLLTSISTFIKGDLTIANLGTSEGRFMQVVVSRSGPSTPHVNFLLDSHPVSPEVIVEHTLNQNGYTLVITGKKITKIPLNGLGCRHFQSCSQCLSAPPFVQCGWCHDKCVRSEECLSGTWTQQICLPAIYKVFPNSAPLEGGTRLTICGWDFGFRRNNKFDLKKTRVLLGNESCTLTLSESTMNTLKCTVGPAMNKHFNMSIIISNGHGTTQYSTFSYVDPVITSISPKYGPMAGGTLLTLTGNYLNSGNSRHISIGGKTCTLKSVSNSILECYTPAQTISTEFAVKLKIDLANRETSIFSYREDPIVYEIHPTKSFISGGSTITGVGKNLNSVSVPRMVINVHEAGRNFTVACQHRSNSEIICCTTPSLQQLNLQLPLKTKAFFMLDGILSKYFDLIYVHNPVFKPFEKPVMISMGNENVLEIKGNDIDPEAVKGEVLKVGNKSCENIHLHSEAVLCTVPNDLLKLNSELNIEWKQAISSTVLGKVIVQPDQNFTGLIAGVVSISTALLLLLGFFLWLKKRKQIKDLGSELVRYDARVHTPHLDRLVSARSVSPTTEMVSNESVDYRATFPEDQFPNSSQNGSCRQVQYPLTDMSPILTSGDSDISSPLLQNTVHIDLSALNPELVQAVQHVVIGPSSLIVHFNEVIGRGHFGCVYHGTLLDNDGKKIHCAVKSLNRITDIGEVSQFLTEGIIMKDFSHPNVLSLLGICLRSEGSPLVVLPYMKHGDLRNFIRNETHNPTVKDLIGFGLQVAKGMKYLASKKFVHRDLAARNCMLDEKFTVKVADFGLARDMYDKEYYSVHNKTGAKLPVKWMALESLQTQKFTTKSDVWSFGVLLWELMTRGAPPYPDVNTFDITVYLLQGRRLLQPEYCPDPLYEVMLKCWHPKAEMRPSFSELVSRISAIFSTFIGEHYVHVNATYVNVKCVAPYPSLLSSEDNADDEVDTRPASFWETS
Chain of c-Kit (P10721 26-976): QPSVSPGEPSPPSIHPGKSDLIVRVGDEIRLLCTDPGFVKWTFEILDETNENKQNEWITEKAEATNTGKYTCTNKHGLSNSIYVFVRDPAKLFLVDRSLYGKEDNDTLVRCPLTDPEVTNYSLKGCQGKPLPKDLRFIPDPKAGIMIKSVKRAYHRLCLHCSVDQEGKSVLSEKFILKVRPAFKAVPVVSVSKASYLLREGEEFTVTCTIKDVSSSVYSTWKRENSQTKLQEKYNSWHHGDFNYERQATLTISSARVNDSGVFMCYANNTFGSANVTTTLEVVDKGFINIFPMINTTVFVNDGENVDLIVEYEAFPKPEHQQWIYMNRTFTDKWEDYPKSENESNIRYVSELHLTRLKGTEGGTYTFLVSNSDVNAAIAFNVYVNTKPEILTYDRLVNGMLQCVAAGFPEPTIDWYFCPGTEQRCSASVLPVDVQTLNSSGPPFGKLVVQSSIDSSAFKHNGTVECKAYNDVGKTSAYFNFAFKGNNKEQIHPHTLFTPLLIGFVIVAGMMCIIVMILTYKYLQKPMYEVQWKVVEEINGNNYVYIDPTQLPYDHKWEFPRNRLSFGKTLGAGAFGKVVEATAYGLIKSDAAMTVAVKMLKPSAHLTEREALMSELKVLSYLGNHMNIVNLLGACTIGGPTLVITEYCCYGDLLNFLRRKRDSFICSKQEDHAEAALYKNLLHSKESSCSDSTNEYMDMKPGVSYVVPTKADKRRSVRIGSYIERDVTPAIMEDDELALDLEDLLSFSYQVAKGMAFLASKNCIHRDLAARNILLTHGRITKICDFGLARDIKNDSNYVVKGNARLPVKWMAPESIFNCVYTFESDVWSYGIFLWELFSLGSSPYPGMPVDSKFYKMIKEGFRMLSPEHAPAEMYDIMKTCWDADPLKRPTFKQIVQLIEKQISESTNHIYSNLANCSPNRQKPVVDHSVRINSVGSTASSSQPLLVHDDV

- IC50 (c-Kit): < 0.05 µM
- IC50 (c-Met): < 0.05 µM
SMILES: COc1cc2c(Oc3ccc(NC(=O)C(=O)NCCc4ccccc4)cc3F)ccnc2cc1OCCCN1CCOCC1 [title compound, N-{3-Fluoro-4-[6-methoxy-7-(3-morpholin-4-yl-propoxy)-quinolin-4-yloxy]-phenyl}-N′-phenethyl-oxalamide]
